The values below come from PMC10547880, “Synthesis and biological evaluation of novel 1,2,3-triazole hybrids of cabotegravir: identification of potent antitumor activity against lung cancer” (Frontiers in Pharmacology, 2023).

The IC50 is the point on the concentration scale where inhibition reaches its midpoint. Read a low IC50 as inhibition by little substance.

Format in all cases: cell-based, Human
One data set deals with LO2 cells. The experiment in a line: CCK8 cell viability, normal cell line LO2. As to conditions: LO2 normal liver cells, 25 μM, 72 h. As for the experimental part:
(§1) Human lung cancer cell line H460 and H1299, human liver normal cell line LO2 were bought from ATCC. DMEM or RPMI 1640 was used as the cell culture medium with 10% FBS and 1% penicillin/streptomycin. Cells were maintained in an incubator with 37°C humidified atmosphere and 5% CO2.
(§2) Cell viability and IC50 values were determined using the CCK8 assay kit. Cells were seeded at a density of 5 × 10^3 cells per well in a 96-well plate. After overnight adhesion, 25 μM of compounds or vehicle control DMSO which all dissolved in the culture medium were added to cells and cultured for 48 h or 72 h. CCK8 reagent, dissolved in the medium, was then added to cells and incubated for 1 h. The absorbance at 450 nm was measured using a microplate spectrophotometer (Thermo). Cell viability was calculated, with the untreated group taken as 100%. For IC50 values determination, different concentrations (0, 0.4 μM, 2 μM, 10 μM, 20 μM, 50 μM) of compounds were added to cells for 72 h. Subsequent CCK8 measurement allowed the calculation of inhibition percentage based on cell viability. The IC50 values were computed by the prism statistical software. The CCK-8 assay was conducted three times and the repetitions in each time were at least three. All the values were expressed as Mean ± SD, p < 0.05 was considered statistically significant.
(§3) In order to assess the potential cytotoxicity of the synthesized compounds, we selected two types of human non-small-cell lung cancer cell line, H460 and H1299. Cell viability and cytotoxicity were evaluated using the CCK8 assay ([Xu et al., 2018]). The cells were treated with 25 μM of compounds 5a-5s and 6a-6i for 48h and 72 h. […] In contrast, no compounds managed to reduce H1299 cell viability to less than 50%, yet compounds 5i, 5m, 6h and 6i achieved cell viability rates below 70%. […] It is worth noting that minimal effects on the cell viability of the normal cell line LO2 were observed when exposed to these compounds. Further, we determined the half-maximal inhibitory concentration (IC50) of selected compounds against H460 cells, the results of which were summarized in Table 3.

The test system of a further data set is H1299 cells. In words: CCK8 cell viability, H1299. As to conditions: H1299, 25 μM. On the procedure:
as §1, §2, §3

The next data set has as its system H460 cells. In words: CCK8 cell viability and IC50 measurement, H460. The note with it: for Cell viability: H460, 25 μM; for cell proliferation inhibition rate: H460, 72-h treatment; for IC50: H460, 72 h, CCK8. As for the experimental part: as §1, §2, §3

Turning to `COc1c2n(cc(C(=O)Nc3cccc(-c4cn(Cc5ccccc5Br)nn4)c3)c1=O)CC1OCC(C)N1C2=O` (centres unmarked) [Compound 6b], the Cell viability with LO2 cells stood at 126.52%; in the data set with H1299 cells (48 h) it was 104.60%; in the data set with H1299 cells (72 h), 101.92%; in the data set with H460 cells (48 h), 51.88%. Moreover, in the data set on H460 cells, the “cell proliferation inhibition rate” value was “exceed 50%”. For the same compound, the IC50 in the data set on H460 cells was found to be 30.5 ± 2.18 µM.

With `COc1cccc(Cn2cc(-c3cccc(NC(=O)c4cn5c(c(OC)c4=O)C(=O)N4C(C)COC4C5)c3)nn2)c1` (centres unmarked) [Compound 6g], the Cell viability in the data set with LO2 cells was 130.54%; with H1299 cells (48 h) it was 91.06%; with H1299 cells (72 h), 94.37%; in the data set with H460 cells (48 h), 93.36%; in the data set on H460 cells (72 h), 95.01%.

Consider `COc1c2n(cc(C(=O)Nc3cccc(-c4cn(-c5cc(C(F)(F)F)cc(C(F)(F)F)c5)nn4)c3)c1=O)CC1OCC(C)N1C2=O` (centres unmarked) [Compound 5e], for which the Cell viability with LO2 cells was 129.12%; with H1299 cells (48 h) it was 103.75%; in the data set with H1299 cells (72 h), 99.34%; in the data set with H460 cells (48 h) it was 101.34%; in the data set on H460 cells (72 h), 101.97%. Further, in the data set with H460 cells, the IC50 was greater than 100 µM.

As to `COc1c2n(cc(C(=O)Nc3cccc(-c4cn(-c5ccc(F)cc5)nn4)c3)c1=O)CC1OCC(C)N1C2=O` (centres unmarked) [Compound 5n], the Cell viability in the data set with LO2 cells was determined as 127.86%; with H1299 cells (48 h), 115.05%; in the data set on H1299 cells (72 h) it was 91.74%; in the data set on H460 cells (48 h), 99.22%; in the data set with H460 cells (72 h), 105.04%.

For the compound `COc1c2n(cc(C(=O)Nc3cccc(-c4cn(-c5cc(C(F)(F)F)ccc5C(F)(F)F)nn4)c3)c1=O)CC1OCC(C)N1C2=O` (centres unmarked) [Compound 5k], the Cell viability in the data set on LO2 cells was 124.51%; in the data set with H1299 cells (48 h), 113.47%; in the data set on H1299 cells (72 h), 91.70%; with H460 cells (48 h), 94.55%; in the data set with H460 cells (72 h), 52.15%. This compound also registered an IC50 in the data set with H460 cells of 36 ± 2.73 µM.

`COc1c2n(cc(C(=O)Nc3cccc(-c4cn(-c5cccc(C(F)(F)F)c5)nn4)c3)c1=O)CC1OCC(C)N1C2=O` (centres unmarked) [Compound 5h]: the Cell viability in the data set with LO2 cells is 101.34%; in the data set on H1299 cells (48 h), 114.98%; in the data set on H1299 cells (72 h), 93.73%; with H460 cells (48 h), 97.75%; with H460 cells (72 h), 75.09%. This compound also showed an IC50 with H460 cells greater than 100 µM.

Regarding `COc1c2n(cc(C(=O)Nc3cccc(-c4cn(Cc5ccccc5)nn4)c3)c1=O)CC1OCC(C)N1C2=O` (centres unmarked) [Compound 6a], the Cell viability with LO2 cells was 127.44%; with H1299 cells (48 h), 118.73%; in the data set on H1299 cells (72 h), 101.39%; in the data set with H460 cells (48 h), 99.81%; in the data set with H460 cells (72 h), 118.33%. In the data set with H460 cells, this compound gave an IC50 greater than 50 µM.

As for `COc1c2n(cc(C(=O)Nc3cccc(-c4cn(-c5cccc(Cl)c5)nn4)c3)c1=O)CC1OCC(C)N1C2=O` (centres unmarked) [Compound 5q], the Cell viability in the data set on LO2 cells came to 125.35%; in the data set on H1299 cells (48 h), 107.23%; with H1299 cells (72 h) it was 88.40%; with H460 cells (48 h) it was 99.40%; in the data set with H460 cells (72 h) it was 104.14%. The IC50 in the data set with H460 cells was greater than 100 µM.

On to `COc1c2n(cc(C(=O)Nc3cccc(-c4cn(-c5cccc(F)c5)nn4)c3)c1=O)CC1OCC(C)N1C2=O` (centres unmarked) [Compound 5f], for which the Cell viability in the data set with LO2 cells is on record as 130.35%; in the data set with H1299 cells (48 h), 114.19%; in the data set with H1299 cells (72 h), 100.41%; in the data set on H460 cells (48 h), 93.31%; in the data set with H460 cells (72 h) it was 100.16%.

Regarding `COc1c2n(cc(C(=O)Nc3cccc(-c4cn(-c5ccccc5I)nn4)c3)c1=O)CC1OCC(C)N1C2=O` (centres unmarked) [Compound 5o], the Cell viability in the data set on LO2 cells is 100.11%; in the data set with H1299 cells (48 h) it was 120.83%; in the data set with H1299 cells (72 h), 86.67%; in the data set with H460 cells (48 h), 101.09%; in the data set with H460 cells (72 h) it was 104.29%.

Regarding `COc1c2n(cc(C(=O)Nc3cccc(-c4cn(-c5ccccc5)nn4)c3)c1=O)CC1OCC(C)N1C2=O` (centres unmarked) [Compound 5p], the Cell viability was determined as 109.72% in the data set on LO2 cells; 114.26% with H1299 cells (48 h); 87.16% with H1299 cells (72 h); 88.36% with H460 cells (48 h); 104.18% in the data set with H460 cells (72 h).

In the case of `CCc1ccccc1-n1cc(-c2cccc(NC(=O)c3cn4c(c(OC)c3=O)C(=O)N3C(C)COC3C4)c2)nn1` (centres unmarked) [Compound 5d], the Cell viability with LO2 cells turned out to be 127.81%; in the data set on H1299 cells (48 h) it was 117.48%; in the data set with H1299 cells (72 h) it was 99.81%; in the data set with H460 cells (48 h) it was 92.17%. Also, in the data set with H460 cells, the “cell proliferation inhibition rate” value was “exceed 50%”. In addition, the 50% inhibitory concentration (IC50) in the data set with H460 cells stood at 12.7 ± 4.85 µM.

On to `COc1c2n(cc(C(=O)Nc3cccc(-c4cn(Cc5ccccc5C)nn4)c3)c1=O)CC1OCC(C)N1C2=O` (centres unmarked) [Compound 6c], for which the Cell viability with LO2 cells was 103.41%; with H1299 cells (48 h), 110.58%; with H1299 cells (72 h) it was 97.63%; in the data set on H460 cells (48 h), 105.51%; with H460 cells (72 h), 101.80%.

As to `COc1c2n(cc(C(=O)Nc3cccc(-c4cn(-c5ccccc5C(F)(F)F)nn4)c3)c1=O)CC1OCC(C)N1C2=O` (centres unmarked) [Compound 5a], the Cell viability stood at 105.28% in the data set on LO2 cells; 121.35% in the data set with H1299 cells (48 h); 102.55% in the data set on H1299 cells (72 h); 87.78% in the data set with H460 cells (48 h); 65.75% in the data set with H460 cells (72 h). Besides, the IC50 in the data set with H460 cells turned out to be 31.8 ± 0.47 µM.

As to `COc1c2n(cc(C(=O)Nc3cccc(-c4cn(-c5ccccc5Br)nn4)c3)c1=O)CC1OCC(C)N1C2=O` (centres unmarked) [Compound 5m], the Cell viability in the data set on LO2 cells was found to be 111.3%; in the data set with H1299 cells (48 h), 112.42%; with H460 cells (48 h), 96.50%; with H460 cells (72 h), 94.59%. The half-maximal inhibitory concentration (IC50) in the data set with H460 cells is greater than 50 µM.

Turning to `COc1c2n(cc(C(=O)Nc3cccc(-c4cn(Cc5cccc(F)c5)nn4)c3)c1=O)CC1OCC(C)N1C2=O` (centres unmarked) [Compound 6i], the Cell viability came out at 127.14% in the data set on LO2 cells, 99.47% with H1299 cells (48 h), 97.90% in the data set with H460 cells (48 h) and 95.51% in the data set on H460 cells (72 h).

As to `COc1c2n(cc(C(=O)Nc3cccc(-c4cn(-c5c(C)cc(C)cc5C)nn4)c3)c1=O)CC1OCC(C)N1C2=O` (centres unmarked) [Compound 5l], the Cell viability came out at 125.46% in the data set on LO2 cells; 118.92% with H1299 cells (48 h); 91.44% in the data set on H1299 cells (72 h); 84.74% in the data set on H460 cells (48 h); 98.25% with H460 cells (72 h).

In the case of `COc1c2n(cc(C(=O)Nc3cccc(-c4cn(Cc5ccccc5Cl)nn4)c3)c1=O)CC1OCC(C)N1C2=O` (centres unmarked) [Compound 6h], the results for the Cell viability in the data set with LO2 cells and with H1299 cells (48 h) were 88.86% and 126.87%, respectively. Moreover, the “cell proliferation inhibition rate” value in the data set with H460 cells is “exceed 50%”. Further, in the data set on H460 cells, the IC50 came out at 15.86 ± 0.09 µM.

As for `COc1ccccc1-n1cc(-c2cccc(NC(=O)c3cn4c(c(OC)c3=O)C(=O)N3C(C)COC3C4)c2)nn1` (centres unmarked) [Compound 5g], the Cell viability in the data set with LO2 cells worked out at 128.56%; with H1299 cells (48 h) it was 117.81%; in the data set with H1299 cells (72 h), 103.45%; with H460 cells (48 h) it was 82.94%; in the data set on H460 cells (72 h), 99.43%.

As for `COc1c2n(cc(C(=O)Nc3cccc(-c4cn(Cc5ccc(C(F)(F)F)cc5)nn4)c3)c1=O)CC1OCC(C)N1C2=O` (centres unmarked) [Compound 6d], the Cell viability was 104.58% in the data set with LO2 cells; 113.99% with H1299 cells (48 h); 93.95% with H1299 cells (72 h); 113.95% with H460 cells (48 h); 105.14% with H460 cells (72 h).

For the compound `COc1c2n(cc(C(=O)Nc3cccc(-c4cn(Cc5ccc(Cl)cc5)nn4)c3)c1=O)CC1OCC(C)N1C2=O` (centres unmarked) [Compound 6f], the Cell viability with LO2 cells is recorded as 130.96%; with H1299 cells (48 h) it was 104.20%; with H1299 cells (72 h), 96.47%; in the data set on H460 cells (48 h), 91.99%; in the data set with H460 cells (72 h), 94.49%.

`COc1c2n(cc(C(=O)Nc3cccc(-c4cn(-c5ccccc5C)nn4)c3)c1=O)CC1OCC(C)N1C2=O` (centres unmarked) [Compound 5c]: the Cell viability is given as 73.79% in the data set with LO2 cells, 94.81% in the data set on H1299 cells (48 h) and 83.51% in the data set on H1299 cells (72 h). In addition, in the data set with H460 cells, the “cell proliferation inhibition rate” value is listed as “exceed 50%”. The compound also displayed an IC50 in the data set on H460 cells of 9.65 ± 0.04 µM.
